Columns and labels:
[1] = test system: tobacco-smoke-induced airway inflammation; assay: Tobacco smoke model of airway inflammation in mice; type: in vivo, female C3H mice; details: mean ± s.e.m.
Experimental: Vehicle and test articles are delivered by intratracheal instillation in 10% ethanol water to animals anesthetized with 3-5% isoflurane (n=8 animals per test article group). All compounds will be delivered on a daily (5 days per week) schedule for 3 weeks during the smoke exposures. Mice were exposed to cigarette smoke for 6 hours per day, 5 days per week for 3 weeks, in H1000 or H2000 chambers. Type 2R4F research cigarettes (Kentucky Tobacco Research and Development Center) were used in the study. Total particulate material (TPM) exposure was kept at […] for the first week to allow animals to reduce adverse effects during adaptation to smoke exposure. TPM exposure was maintained between 100 and 250 mg TPM/m^3 during the remainder of the study. After 3 weeks, animals were euthanized and bronchoalveolar lavage fluid was obtained for cell differentials and cytokine analysis by Luminex multiplex immunoassay.

[2] = test system: ragweed-induced bronchoconstriction; assay: Ragweed-induced bronchoconstriction in dogs; type: in vivo, beagle dogs; details: mean ± s.e.m.
Experimental: The compound of Example 52 was assesed for bronchodilator activity in a ragweed-induced bronchoconstriction model in beagle dogs. Dogs were mechanically ventilated during each experiment. Airflow and tidal volume were measured using a differential pressure transducer located in front of the endotracheal tube. An esophageal balloon catheter placed in the esophagus was used to determine transpulmonary pressure. Pulmonary resistance and dynamic lung compliance were calculated from the simultaneous measurement of transpulmonary pressure and respiratory flow. The canine exposure system was designed to expose an anesthetized animal via an intubation tube. Dogs were administered vehicle or test article by inhalation 30 minutes before ragweed antigen exposure (n=4). Dogs were challenged with ragweed antigen (ragweed short, Ambrosia artemisifolia, Greer, Lenoir, N.C.) by inhalation (5 breaths). Immediately following ragweed challenge, changes in pulmonary resistance and compliance were measured for up to 30 minutes.

[3] = test system: Ascaris suum antigen-induced bronchoconstriction and airway hyperreactivity; assay: Ascaris suum-induced pulmonary responses in sheep; type: in vivo
Experimental: One breath unit is defined as one breath of a 1% w/v carbachol solution. Test article was administered either by a pre-dosing or duration of action protocol. In the pre-dosing regimen, animals were dosed once daily for four days, with the last dose administered 1 hr before antigen. In the duration of action regimen, animals were dosed once daily for four days, with the last dose administered 24 hours before antigen. Test article, Ascaris antigen, and carbachol were administered by nebulized aerosol to intubated sheep.

[4] = Stability of steroid C-21 esters, carbonates and carbamates in rat lung homogenate; details: for Mean [Parent] (nM) at 2 hrs, 37° C.: parent compound; for Mean % compound remaining at 2 hrs, 37° C.: 900 nM, n=3
Experimental: Lungs from Fischer 344 rats were obtained fresh by overnight delivery at 4° C. from BioReclamation Inc. (Hicksville, N.Y.). Lungs were weighed and homogenized in a 1:3 w/v ratio with sterile phosphate buffered saline (PBS, 10 mM, pH 7.4) in glass vials on ice. After centrifugation at 3,000×g for 10 min at 4° C. the supernatant was decanted into sterile conical tubes and placed on ice. The total protein content of the supernatant was determined by the bicinchoninic acid (BCA) method (Pierce Biotechnology, Rockford, Ill.), using bovine serum albumin (BSA) as the standard. Lung homogenates were prepared to a final concentration of 1 mg total protein/mL in 10 mM PBS, pH 7.4.
Heat-inactivation was achieved by incubation at 80° C. for 30 min, after which the homogenate was allowed to cool to room temperature, stored overnight at 4° C. The homogenate was used for the assay and standard curve preparations. Before use, each homogenate preparation was equilibrated for 15 min in a 37° C. water bath. […] DMSO (2.7 uL) added to 3 mL of temperature-equilibrated homogenate served as a control. Aliquots (100 uL) of homogenate+compound were added to 400 μL quenching solution consisting of 100% HPLC-grade acetonitrile+500 ng/mL glyburide for the zero time point (n=3 for each time point).
The glyburide served as an internal LC/MS/MS standard. The remainder of each drug+homogenate solution was aliquoted into a 96-well tissue culture plates. After an additional 30 min and 120 min incubation at 37° C., 100 μL aliquots were added to 400 μL quenching solution. Denatured proteins in the quenching solution were separated by centrifugation at 3000×g for 2 min at 4° C., and 160 μL of the supernatants were transferred to new 96-well plate for analysis by LC/MS/MS. Collection plates were covered with plastic film and were kept on ice. For storage, covered plates were and kept stored at −80° C. until further use.
An aliquot of 50 μL of each sample was diluted with 50 μL of water containing internal standard at 4° C. The diluted samples were then centrifuged for 20 minutes at 3000 rpm at 4° C. An aliquot of 20 μL of the solution was injected into the TSQ Ultra Quantum.
LC/MS/MS system. The compounds were separated by HPLC using a HyPurity C18 HPLC column (30×2.1 mm, 5μ) from ThermoHypersil. A Multiplex LX-2 HPLC system (Cohesive Technologies, Franklin, Mass.) with two identical Agilent 1100 series binary pumps (P/N G1312A) were used for elution and separation. Samples were maintained at 4° C. in an HTS Pal autosampler (LEAP Technologies, Carrboro, N.C.) in order to reduce any potential spontaneous hydrolysis of the compounds before injection onto the HPLC. The analytes were eluted using the following mobile phases; Mobile phase A contained 1% acetonitrile in 10 mM ammonium formate aqueous solution with 1% formic acid. Mobile phase B contained 80% acetonitrile in 10 mM ammonium formate with 1% formic acid. The HPLC elution program used to elute the analytes was as follows:
The samples were further analyzed by tandem mass spectrometry using a TSQ Quantum Ultra triple quadrupole mass spectrometer (Thermo Finnigan, San Jose, Calif.) using a selective reaction monitoring (SRM) scan type. The mass spectrometry parameters used were as follows:
Nine-point standard curves for each test compound were prepared and analyzed in heat-inactivated lung homogenate. […] The data expressed in Table 2 represent the mean (n=3) percent remaining compound in both types of homogenate at 2 hours, 37° C.

[5] = test system: ovalbumin-induced lung inflammation; assay: Mouse ovalbumin model of lung inflammation; type: in vivo, Mice (Balb/c); details: 3.0 mg/kg IT, 1x/day day 14 and 15; mouse OVA
Experimental: Mice (Balb/c) were immunized by intraperitoneal injection of ovalbumin (10 μg OVA suspended in 2 mg aluminum hydroxide) on day 0 and 7. One group was sensitized and treated with vehicle (NSV). One group was immunized with sterile water only and treated with vehicle, e.g. to serve as a nonsensitized (negative) control (Vehicle). […] On days 14 and 15, the animals were exposed to OVA by inhalation (3 h; 5 mg/m^3). Forty eight hours following the last OVA challenge (day 17) mice were sacrificed. Bronchoalveolar lavage (BAL) was taken from each animal to collect cells and fluid. Cell numbers and differentials were calculated from BAL.

[6] = test system: LPS-induced airway inflammation; assay: LPS-induced airway inflammation in rats; type: in vivo, Male Fischer 344 rats
Experimental: Example 52 was evaluated in an LPS-induced airway inflammation model in rats. Male Fischer 344 rats (n 8/group) were treated with either vehicle or test article by intratracheal instillation in […] volume 1 hour prior to LPS challenge. Animals were then exposed to LPS by nose-only inhalation exposure for 10 minutes at 5 mg/m^3 resulting in an estimated 5 μg lung deposition. Animals were sacrificed 4 hours after LPS exposure. Lungs were lavaged for bronchoalveolar lavage cell differentials and cytokine analysis by Luminex multiplex immunoassay.

[7] = Drug levels in plasma, BALF and lung after IT administration in the rat; details: analyte after IT administration of Example 83, 1 mg/kg
Experimental: Compounds of Examples 52 and 83 were formulated for intratracheal (IT) dosing in 10% EtOH, 90% Sterile Water, and dosed in male Sprague-Dawley rats at 3 mg/kg (Example 52) and 1 mg/kg (Example 83). Each dosing group consisted of 3 male, naïve purebred Sprague-Dawley rats. At dosing, the animals weighed ˜0.30 kg. The animals were fasted overnight prior to dose administration and up to 2 hr after dosing. The compounds were administered IT using a Penn Century Microsprayer (Model 1A-1B).
Blood samples were collected at 0.5, 2, and 4 hours post-dose. Each blood sample (0.5-0.6 mL per sample) was collected via the orbital sinus (following anesthesia for BAL procedure) into tubes containing EDTA anti-coagulant into containers surrounded by dry ice at 0.5, 2 and 4 hr (mean, n=6). Blood samples were stored at −20±5° C. until shipped for analysis.
The animals were anesthetized with an intramuscular (IM) injection of a ketamine/xylazine/acepromazine (80/10/2 mg/kg) cocktail at a dose volume of 1.1 mL/kg. A cannula (modified Bard® infant feeding tube) was inserted into the trachea. Warmed sterile saline was injected into the lungs. The lungs were gently massaged by palpation of the chest for approximately 45 seconds. The fluid (BALF) was recovered and placed on ice. The procedure was repeated two more times, and all three BALF samples pooled. The fluid was centrifuged under refrigerated conditions at 350 g for 10 minutes. The supernatant and cell pellet were collected and stored at approximately −70° C. until shipped for analysis.
Immediately following each BAL procedure, the lungs from each animal were removed, blotted dry, weighed, and stored frozen at −70° C. until shipped for analysis.
An LC/MS/MS method was used to measure the concentration of compound in plasma.
Add 3×w/v of 1×PBS buffer (90:10-PBS:ACN) to each lung tissue. Homogenize the sample w/Polytron (PT1200) and take 50 uL of supernatant and inject to LC/MSMS.
An aliquot of 50 μL of each plasma sample was treated with 100 mL of acetonitrile (ACN) containing internal standard. After the protein precipitation, an aliquot of 100 μL of the supernatant was transferred to a clean 96-well plate and mixed with 100 μL of water. An aliquot of 30 μL of the above solution was injected to the TSQ Ultra Quantum LC/MS/MS system.
A HyPurity C18 HPLC column (30×2.1 mm, 5μ) from ThermoHypersil (Part #: 22105-032130) was used. Mobile phase A contained 1% acetonitrile in 10 mM ammonium formate aqueous solution with 1% formic acid. Mobile phase B contained 80% acetonitrile in 10 mM ammonium formate with 1% formic acid. An Agilent 1100 series binary pump (P/N G1312A Bin Pump) was used for elution and separation. HTS Pal autosampler from LEAP Technologies, Carrboro, N.C. was used.
TSQ Quantum Ultra triple quadrupole mass spectrometer from Thermo Finnigan, San Jose, Calif. was used in selective reaction monitoring (SRM) operation mode, Tune file:

[8] = 0.51 mg/kg i.t. daily, 3 weeks smoke
[9] = 10 μg/kg by inhalation 30 minutes before ragweed, n=4
[10] = Duration of action regimen (last dose 24 hours before antigen), Post-Ascaris, Example 52 4.7 mg, ciclesonide 2.2 mg, salmeterol xinafoate 2.5 mg, n=4
[11] = Duration of action regimen, 1 hour, n=4
[12] = Duration of action regimen, 2 hours, n=4
[13] = Duration of action regimen, 3 hours, n=4
[14] = Duration of action regimen, 4 hours, n=4
[15] = Duration of action regimen, 5 hours, n=4
[16] = Duration of action regimen, 6 hours, n=4
[17] = Duration of action regimen, 6.5 hours, n=4
[18] = Duration of action regimen, 7 hours, n=4
[19] = Duration of action regimen, 7.5 hours, n=4
[20] = Duration of action regimen, 8 hours, n=4
[21] = Duration of action regimen, Baseline, Example 52 4.7 mg, ciclesonide 2.2 mg, salmeterol xinafoate 2.5 mg, n=4
[22] = Duration of action regimen, Post-Antigen, n=4
[23] = Inactive (heat-inactivated) rat lung homogenate

In the case of CC(C)C(=O)OCC(=O)[C@@]12O[C@H](C3CCCCC3)O[C@@H]1C[C@H]1[C@@H]3CCC4=CC(=O)C=C[C@]4(C)[C@H]3[C@@H](O)C[C@@]12C [Ciclesonide, ciclesonide], the IL-1α ([1]; 0.31 mg/kg i.t.) is reported as 5.25 ± 0.85 pg/mL, the MIP-1α ([1]; 0.31 mg/kg i.t.) is reported as 8.31 ± 1.17 pg/mL and the Neutrophils ([1]; 0.31 mg/kg i.t.) is reported as 13.9 ± 2.1 ×10^4/ml. The IL-1α [1, 8] was 5.50 ± 0.96 pg/mL, the MIP-1α [1, 8] was 10.02 ± 1.75 pg/mL and the Neutrophils [1, 8] was 15.0 ± 1.5 ×10^4/ml. The “Pulmonary Resistance (% of Baseline)” value [2, 9] was 302.3 ± 24.8 % of Baseline, the “Bronchoconstriction, Lung Resistance (% Increase)” value (“Bronchoconstriction … (% Increase)” for short) [3, 10] was 416 % Increase and the “Bronchoconstriction … (% Increase)” value [3, 11] was 224 % Increase. For the same compound, the “Bronchoconstriction … (% Increase)” value [3, 12] was 146 % Increase, the “Bronchoconstriction … (% Increase)” value [3, 13] was 69 % Increase and the “Bronchoconstriction … (% Increase)” value [3, 14] was 21 % Increase. For the same compound, the “Bronchoconstriction … (% Increase)” value [3, 15] was 44 % Increase, the “Bronchoconstriction … (% Increase)” value [3, 16] was 66 % Increase and the “Bronchoconstriction … (% Increase)” value [3, 17] was 71 % Increase. For the same compound, the “Bronchoconstriction … (% Increase)” value [3, 18] was 65 % Increase, the “Bronchoconstriction … (% Increase)” value [3, 19] was 62 % Increase and the “Bronchoconstriction … (% Increase)” value [3, 20] was 50 % Increase. The “Hyperreactivity PC400” value [3, 21] was 28.3 carbachol breath units, the “Hyperreactivity PC400” value [3, 22] was 21.5 carbachol breath units and the “Bronchoconstriction … (% Increase)” value ([3]; Predosing regimen (last dose 1 hr before antigen), Post-Ascaris, Example 52 4.7 mg, ciclesonide 2.2 mg, n=2) was 305 % Increase. For the same compound, the “Bronchoconstriction … (% Increase)” value ([3]; Predosing regimen, 1 hour, n=2) was 142 % Increase, the “Bronchoconstriction … (% Increase)” value ([3]; Predosing regimen, 2 hours, n=2) was 44 % Increase and the “Bronchoconstriction … (% Increase)” value ([3]; Predosing regimen, 3 hours, n=2) was 8 % Increase. The “Bronchoconstriction … (% Increase)” value ([3]; Predosing regimen, 4 hours, n=2) was 6 % Increase, the “Bronchoconstriction … (% Increase)” value ([3]; Predosing regimen, 5 hours, n=2) was 14 % Increase and the “Bronchoconstriction … (% Increase)” value ([3]; Predosing regimen, 6 hours, n=2) was 28 % Increase. For the same compound, the “Bronchoconstriction … (% Increase)” value ([3]; Predosing regimen, 6.5 hours, n=2) was 12 % Increase, the “Bronchoconstriction … (% Increase)” value ([3]; Predosing regimen, 7 hours, n=2) was 28 % Increase and the “Bronchoconstriction … (% Increase)” value ([3]; Predosing regimen, 7.5 hours, n=2) was 33 % Increase. The “Bronchoconstriction … (% Increase)” value ([3]; Predosing regimen, 8 hours, n=2) was 15 % Increase, the “Hyperreactivity PC400” value ([3]; Predosing regimen, Baseline, Example 52 4.7 mg, ciclesonide 2.2 mg, n=2) was 26.5 carbachol breath units and the “Hyperreactivity PC400” value ([3]; Predosing regimen, Post-Antigen (24 hours after challenge), n=2) was 25.5 carbachol breath units. For the same compound, the “Effect on late phase bronchoconstriction and development of airway hyperreactivity” value ([3]; duration of action regimen) was “reduced efficacy”, the “Mean [Parent] (nM) at 2 hrs, 37° C.” value ([4]; Active homogenate) was 18 nM and the “Mean % compound remaining at 2 hrs, 37° C.” value (“Mean % compound remaining” for short) ([4]; Active rat lung homogenate) was 12%. The “Mean % compound remaining” value [4, 23] was 88%, the “Mean [Parent] (nM) at 2 hrs, 37° C.” value ([4]; Inactive homogenate) was 154 nM and the “Eosinophils in BAL, Mean” value [5] was 60170 mL⁻¹. The “Neutrophils in BAL, Mean” value [5] was 4790 mL⁻¹, the Neutrophils ([6]; 3 mg/kg intratracheal, 1 hour prior to LPS, rat BAL, mean ± s.e.m.) was 9.7 ± 0.89 × 10^4/ml and the TNFα ([6]; 3 mg/kg intratracheal, rat BAL, mean ± s.e.m.) was 629.2 ± 330.0 pg/mL. For the same compound, the “Inhibition of LPS-induced airway inflammation measured as neutrophil influx and TNFα production” value ([6]; at doses tested, versus vehicle control) was “significantly inhibit”.

For OCc1cc(C(O)CNCCCCCCOCCCCc2ccccc2)ccc1O (centres unmarked) [Salmeterol Xinafoate, salmeterol xinafoate], the IL-1α ([1]; 0.57 mg/kg i.t.) was 4.22 ± 0.73 pg/mL, the MIP-1α ([1]; 0.57 mg/kg i.t.) was 6.09 ± 1.38 pg/mL and the Neutrophils ([1]; 0.57 mg/kg i.t.) was 10.9 ± 2.5 ×10^4/ml. The “Pulmonary Resistance (% of Baseline)” value ([2]; 3 μg/kg by inhalation) was 265.6 ± 38.8 % of Baseline, the “Pulmonary Resistance (% of Baseline)” value [2, 9] was 177.8 ± 14.4 % of Baseline and the “Bronchoconstriction … (% Increase)” value [3, 10] was 370 % Increase. For the same compound, the “Bronchoconstriction … (% Increase)” value [3, 11] was 213 % Increase, the “Bronchoconstriction … (% Increase)” value [3, 12] was 114 % Increase and the “Bronchoconstriction … (% Increase)” value [3, 13] was 64 % Increase. For the same compound, the “Bronchoconstriction … (% Increase)” value [3, 14] was 25 % Increase, the “Bronchoconstriction … (% Increase)” value [3, 15] was 54 % Increase and the “Bronchoconstriction … (% Increase)” value [3, 16] was 86 % Increase. For the same compound, the “Bronchoconstriction … (% Increase)” value [3, 17] was 85 % Increase, the “Bronchoconstriction … (% Increase)” value [3, 18] was 83 % Increase and the “Bronchoconstriction … (% Increase)” value [3, 19] was 76 % Increase. For the same compound, the “Bronchoconstriction … (% Increase)” value [3, 20] was 72 % Increase, the “Hyperreactivity PC400” value [3, 21] was 29.5 carbachol breath units and the “Hyperreactivity PC400” value [3, 22] was 22.8 carbachol breath units.

With C[C@]12C=CC(=O)C=C1CC[C@@H]1[C@@H]2[C@@H](O)C[C@@]2(C)[C@H]1C[C@H]1O[C@@H](C3CCCCC3)O[C@]12C(=O)CO [des-ciclesonide, desisobutyryl ciclesonide, reference compound] the “Mean [Parent] (nM) at 2 hrs, 37° C.” value ([4]; Active homogenate) was 119 nM, the “Mean % compound remaining” value ([4]; Active rat lung homogenate) was 98% and the “Mean % compound remaining” value [4, 23] was 71%. The “Mean [Parent] (nM) at 2 hrs, 37° C.” value ([4]; Inactive homogenate) was 84 nM, the “Plasma Conc” value ([7]; 0.5 hr) was “BLQ” and the “Plasma Conc” value ([7]; 2.0 hr) was “BLQ”. The “Plasma Conc” value ([7]; 4.0 hr) was “BLQ”.

Source: US20090318396A1, “CORTICOSTEROID LINKED BETA-AGONIST COMPOUNDS FOR USE IN THERAPY” (priority 2008, published 2009)
